# In PubChem BioAssay (NCI):
#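 In this assay, cells in 96-well plates receive the compound at five concentrations for 48 hours. Endpoints are linearly interpolated between the surrounding concentrations. GI50 = concentration required for 50% inhibition of growth. The concentration for full growth arrest is given as TGI.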
# Tests used:
# Test in all cases: DTP human tumour cell line panel, 48 h
# [1] = system: 786-0 renal
# [2] = system: A498 renal
# [3] = system: A549 NSCLC
# [4] = system: ACHN renal
# [5] = system: BT-549 breast
# [6] = system: CAKI-1 renal
# [7] = system: CCRF-CEM leukemia
# [8] = system: COLO 205 colon
# [9] = system: DU-145 prostate
# [10] = system: EKVX NSCLC
# [11] = system: HCC-2998 colon
# [12] = system: HCT-116 colon
# [13] = system: HCT-15 colon
# [14] = system: HL-60(TB) leukemia
# [15] = system: HOP-62 NSCLC
# [16] = system: HOP-92 NSCLC
# [17] = system: HS 578T breast
# [18] = system: HT29 colon
# [19] = system: IGROV1 ovarian
# [20] = system: K-562 leukemia
# [21] = system: KM12 colon
# [22] = system: LOX IMVI melanoma
# [23] = system: M14 melanoma
# [24] = system: MALME-3M melanoma
# [25] = system: MCF7 breast
# [26] = system: MDA-MB-231 breast
# [27] = system: MDA-MB-435
# [28] = system: MOLT-4 leukemia
# [29] = system: NCI-H226 lung
# [30] = system: NCI-H460 lung
# [31] = system: NCI-H522 lung
# [32] = system: NCI/ADR-RES ovarian
# [33] = system: OVCAR-3 ovarian
# [34] = system: OVCAR-4 ovarian
# [35] = system: OVCAR-5 ovarian
# [36] = system: OVCAR-8 ovarian
# [37] = system: PC-3 prostate
# [38] = system: RPMI-8226 leukemia
# [39] = system: RXF 393 renal
# [40] = system: SF-268 CNS
# [41] = system: SF-295 CNS
# [42] = system: SF-539 CNS
# [43] = system: SK-MEL-2 melanoma
# [44] = system: SK-MEL-28 melanoma
# [45] = system: SK-MEL-5 melanoma
# [46] = system: SK-OV-3 ovarian
# [47] = system: SN12C renal
# [48] = system: SNB-19 CNS
# [49] = system: SNB-75 CNS
# [50] = system: SR leukemia
# [51] = system: SW-620 colon
# [52] = system: T-47D breast
# [53] = system: TK-10 renal
# [54] = system: U251 CNS
# [55] = system: UACC-257 melanoma
# [56] = system: UACC-62 melanoma
# [57] = system: UO-31 renal
# [58] = system: NCI-H23 lung
smiles,measurement,setting,value
O=C(CSc1nc2sc3c(c2c(=O)n1-c1ccc(Cl)cc1)CCCC3)NNC(=O)Nc1cccc(C(F)(F)F)c1,GI50,[1],2.7 µM
same,TGI,[1],9.79 µM
same,GI50,[2],1.96 µM
same,TGI,[2],4.85 µM
same,GI50,[3],2.97 µM
same,TGI,[3],12.3 µM
same,GI50,[4],3.67 µM
same,TGI,[4],14.9 µM
same,GI50,[5],2.02 µM
same,TGI,[5],5.9 µM
same,GI50,[6],2.31 µM
same,TGI,[6],7.14 µM
same,GI50,[7],3.53 µM
same,TGI,[7],> 100 µM
same,GI50,[8],1.92 µM
same,TGI,[8],3.52 µM
same,GI50,[9],4.12 µM
same,TGI,[9],> 100 µM
same,GI50,[10],2.45 µM
same,TGI,[10],8.32 µM
same,GI50,[11],2.99 µM
same,TGI,[11],11.9 µM
same,GI50,[12],1.98 µM
same,TGI,[12],4.01 µM
same,GI50,[13],3.05 µM
same,TGI,[13],11.5 µM
same,GI50,[14],2.39 µM
same,TGI,[14],6.57 µM
same,GI50,[15],3.3 µM
same,TGI,[15],13.5 µM
same,GI50,[16],1.66 µM
same,TGI,[16],4.2 µM
same,GI50,[17],3.1 µM
same,TGI,[17],21.6 µM
same,GI50,[18],2.33 µM
same,TGI,[18],5.85 µM
same,GI50,[19],5.33 µM
same,TGI,[19],25 µM
same,GI50,[20],2.64 µM
same,TGI,[20],> 100 µM
same,GI50,[21],3.75 µM
same,TGI,[21],23.5 µM
same,GI50,[22],1.68 µM
same,TGI,[22],3.33 µM
same,GI50,[23],3.2 µM
same,TGI,[23],11.3 µM
same,GI50,[24],2.06 µM
same,TGI,[24],5.23 µM
same,GI50,[25],2.4 µM
same,TGI,[25],10 µM
same,GI50,[26],2.76 µM
same,TGI,[26],8.65 µM
same,GI50,[27],2.89 µM
same,TGI,[27],8.95 µM
same,GI50,[28],2.9 µM
same,TGI,[28],> 100 µM
same,GI50,[29],2.78 µM
same,TGI,[29],8.31 µM
same,GI50,[30],3.12 µM
same,TGI,[30],10.5 µM
same,GI50,[31],1.81 µM
same,TGI,[31],4.51 µM
same,GI50,[32],3.12 µM
same,TGI,[32],14 µM
same,GI50,[33],3.15 µM
same,TGI,[33],11.5 µM
same,GI50,[34],2.44 µM
same,TGI,[34],6.78 µM
same,GI50,[35],4.21 µM
same,TGI,[35],31 µM
same,GI50,[36],2.85 µM
same,TGI,[36],9.3 µM
same,GI50,[37],2.5 µM
same,GI50,[38],2.87 µM
same,TGI,[38],> 100 µM
same,GI50,[39],2.31 µM
same,TGI,[39],6.48 µM
same,GI50,[40],5.82 µM
same,TGI,[40],48.6 µM
same,GI50,[41],2.28 µM
same,TGI,[41],6.16 µM
same,GI50,[42],3.46 µM
same,TGI,[42],11.9 µM
same,GI50,[43],2.21 µM
same,TGI,[43],5.75 µM
same,GI50,[44],3.69 µM
same,TGI,[44],14 µM
same,GI50,[45],2.88 µM
same,TGI,[45],8.81 µM
same,GI50,[46],2.13 µM
same,TGI,[46],6.06 µM
same,GI50,[47],2.83 µM
same,TGI,[47],8.44 µM
same,GI50,[48],3.97 µM
same,TGI,[48],77.3 µM
same,GI50,[49],3.42 µM
same,TGI,[49],18.9 µM
same,GI50,[50],2.74 µM
same,TGI,[50],> 100 µM
same,GI50,[51],3.49 µM
same,TGI,[51],15 µM
same,GI50,[52],2.29 µM
same,TGI,[52],7.14 µM
same,GI50,[53],3.43 µM
same,TGI,[53],9.9 µM
same,GI50,[54],2 µM
same,TGI,[54],4.39 µM
same,GI50,[55],2.36 µM
same,TGI,[55],6.96 µM
same,GI50,[56],2.38 µM
same,TGI,[56],7.4 µM
same,GI50,[57],2.84 µM
same,TGI,[57],12.6 µM
CCCCCCNC(=O)Oc1ccc(/C(=C(\C)c2ccc(Cl)cc2)c2ccc(OCCN(C)C)cc2)cc1,GI50,[1],1.74 µM
same,TGI,[1],3.27 µM
same,GI50,[2],2.69 µM
same,TGI,[2],12.1 µM
same,GI50,[3],1.63 µM
same,TGI,[3],3.13 µM
same,GI50,[4],1.88 µM
same,TGI,[4],3.77 µM
same,GI50,[5],2.88 µM
same,TGI,[5],9.2 µM
same,GI50,[6],1.33 µM
same,TGI,[6],2.65 µM
same,GI50,[7],1.89 µM
same,TGI,[7],5.64 µM
same,GI50,[8],1.68 µM
same,TGI,[8],3.1 µM
same,GI50,[9],2.02 µM
same,TGI,[9],3.92 µM
same,GI50,[10],3.83 µM
same,TGI,[10],16.5 µM
same,GI50,[11],2.06 µM
same,TGI,[11],4.29 µM
same,GI50,[12],1.53 µM
same,TGI,[12],3 µM
same,GI50,[13],1.72 µM
same,TGI,[13],3.3 µM
same,GI50,[14],1.62 µM
same,TGI,[14],4.3 µM
same,GI50,[15],1.63 µM
same,TGI,[15],3.18 µM
same,GI50,[16],1.02 µM
same,TGI,[16],2.22 µM
same,GI50,[17],1.55 µM
same,TGI,[17],3.53 µM
same,GI50,[18],1.71 µM
same,TGI,[18],3.37 µM
same,GI50,[19],1.81 µM
same,TGI,[19],3.57 µM
same,GI50,[20],1.66 µM
same,TGI,[20],7.21 µM
same,GI50,[21],1.87 µM
same,TGI,[21],3.61 µM
same,GI50,[22],1.63 µM
same,TGI,[22],2.99 µM
same,GI50,[23],1.69 µM
same,TGI,[23],3.19 µM
same,GI50,[24],1.72 µM
same,TGI,[24],3.26 µM
same,GI50,[25],0.216 µM
same,TGI,[25],2.19 µM
same,GI50,[26],1.77 µM
same,TGI,[26],3.38 µM
same,GI50,[27],1.72 µM
same,TGI,[27],3.24 µM
same,GI50,[28],1.93 µM
same,TGI,[28],5.27 µM
same,GI50,[29],4.26 µM
same,TGI,[29],18.1 µM
same,GI50,[58],2.24 µM
same,TGI,[58],5.71 µM
same,GI50,[30],1.7 µM
same,TGI,[30],3.12 µM
same,GI50,[31],1.78 µM
same,TGI,[31],3.42 µM
same,GI50,[32],3.12 µM
same,TGI,[32],11.8 µM
same,GI50,[34],1.94 µM
same,TGI,[34],4.65 µM
same,GI50,[35],4.26 µM
same,TGI,[35],17.1 µM
same,GI50,[36],1.6 µM
same,TGI,[36],3.1 µM
same,GI50,[37],1.44 µM
same,TGI,[37],2.84 µM
same,GI50,[38],1.9 µM
same,TGI,[38],4.3 µM
same,GI50,[39],1.33 µM
same,TGI,[39],2.72 µM
same,GI50,[40],2.39 µM
same,TGI,[40],7.63 µM
same,GI50,[41],1.75 µM
same,TGI,[41],3.2 µM
same,GI50,[42],1.74 µM
same,TGI,[42],3.12 µM
same,GI50,[43],1.87 µM
same,TGI,[43],3.8 µM
same,GI50,[44],1.78 µM
same,TGI,[44],3.26 µM
same,GI50,[45],1.77 µM
same,TGI,[45],3.25 µM
same,GI50,[46],2.22 µM
same,TGI,[46],6.92 µM
same,GI50,[47],1.68 µM
same,TGI,[47],3.22 µM
same,GI50,[48],3.31 µM
same,TGI,[48],12.4 µM
same,GI50,[49],1.69 µM
same,TGI,[49],7.12 µM
same,GI50,[50],1.68 µM
same,TGI,[50],4.1 µM
same,GI50,[51],1.6 µM
same,TGI,[51],3.03 µM
same,GI50,[52],1.45 µM
same,TGI,[52],4.12 µM
same,GI50,[53],1.84 µM
same,TGI,[53],4.08 µM
same,GI50,[54],1.59 µM
same,TGI,[54],3.04 µM
same,GI50,[55],1.76 µM
same,TGI,[55],3.28 µM
same,GI50,[56],1.72 µM
same,TGI,[56],3.32 µM
same,GI50,[57],1.31 µM
same,TGI,[57],2.77 µM
